Source: patent US11596622B2, “Mazindol treatment for heroin dependence and substance use disorder” (NLS Pharmaceutics AG, priority 2017, dated 2023)

Tests used:
5-HT7(h) = molecular target: T1, 5-HT7(h) (Homo sapiens, UniProt P34969); test: Radioligand binding, 5-HT7 (Eurofins CEREP); conditions: 1.0 × 10^−05 M; agonist radioligand; read-out: percent inhibition of the binding of a radioactively labeled ligand
T1 construct: Eurofins CEREP
Source text: (§1) Table A discloses mazindol and Met tested at […] and the compound binding calculated as a percent inhibition of the binding of a radioactively labeled ligand specific for each target (Eurofins CEREP, France).
(§2) An inhibition or stimulation of more than 50% is considered a significant effect of the test compounds. Fifty percent is a common cut-off for further investigation (i.e. determination of IC50 or EC50 values from concentration-response curves). Tables B and C display the binding profiles for Mazindol and Met.
(§3) The results are expressed as a percent of control specific binding obtained in the presence of the test compounds:
(§4) [formula] and as a percent inhibition of control specific binding obtained in the presence of the test compounds: […]

M1(h) = molecular target: T2, M1(h) (Homo sapiens, UniProt P11229); test: Radioligand binding, M1 (Eurofins CEREP); conditions: 1.0 × 10^−05 M; antagonist radioligand; read-out: percent inhibition of the binding of a radioactively labeled ligand
T2 construct: Eurofins CEREP
T2 sequence (P11229 1-460): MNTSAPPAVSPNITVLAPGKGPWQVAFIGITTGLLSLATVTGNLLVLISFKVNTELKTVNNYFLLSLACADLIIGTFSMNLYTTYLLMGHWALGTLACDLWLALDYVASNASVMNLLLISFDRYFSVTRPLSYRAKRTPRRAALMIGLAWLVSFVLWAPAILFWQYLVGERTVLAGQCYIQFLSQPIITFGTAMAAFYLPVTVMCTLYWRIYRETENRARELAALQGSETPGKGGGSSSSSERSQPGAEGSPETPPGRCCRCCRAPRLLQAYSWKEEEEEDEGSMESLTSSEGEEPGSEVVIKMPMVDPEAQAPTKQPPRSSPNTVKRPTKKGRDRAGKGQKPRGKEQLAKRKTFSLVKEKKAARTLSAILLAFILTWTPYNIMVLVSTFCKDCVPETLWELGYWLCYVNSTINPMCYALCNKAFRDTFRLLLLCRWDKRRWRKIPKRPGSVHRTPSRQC
Source text: as §1, §2, §3, §4

μ (MOP) (h) = molecular target: T3, μ (MOP) (h) (Homo sapiens, UniProt P35372); test: Radioligand binding, μ opioid receptor (Eurofins CEREP)
T3 construct: Eurofins CEREP
T3 sequence (P35372 whole entry): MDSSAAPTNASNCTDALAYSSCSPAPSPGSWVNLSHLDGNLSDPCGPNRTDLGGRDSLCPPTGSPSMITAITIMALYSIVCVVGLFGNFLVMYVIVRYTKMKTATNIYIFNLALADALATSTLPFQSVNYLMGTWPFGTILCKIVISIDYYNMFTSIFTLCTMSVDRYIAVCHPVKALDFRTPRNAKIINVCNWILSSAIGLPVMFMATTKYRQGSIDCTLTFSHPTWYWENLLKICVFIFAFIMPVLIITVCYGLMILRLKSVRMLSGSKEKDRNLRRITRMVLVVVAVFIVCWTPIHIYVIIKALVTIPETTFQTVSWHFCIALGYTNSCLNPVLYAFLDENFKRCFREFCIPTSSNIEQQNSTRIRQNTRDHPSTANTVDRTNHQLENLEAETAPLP
Source text: as §1, §2, §3, §4

[1] = molecular target: T4, Norepinephrine transporter (h) (Homo sapiens, UniProt P23975); test: Radioligand binding, norepinephrine transporter (Eurofins CEREP); conditions: 1.0 × 10^−05 M; antagonist radioligand; read-out: percent inhibition of the binding of a radioactively labeled ligand
T4 construct: Eurofins CEREP
T4 sequence (P23975 whole entry): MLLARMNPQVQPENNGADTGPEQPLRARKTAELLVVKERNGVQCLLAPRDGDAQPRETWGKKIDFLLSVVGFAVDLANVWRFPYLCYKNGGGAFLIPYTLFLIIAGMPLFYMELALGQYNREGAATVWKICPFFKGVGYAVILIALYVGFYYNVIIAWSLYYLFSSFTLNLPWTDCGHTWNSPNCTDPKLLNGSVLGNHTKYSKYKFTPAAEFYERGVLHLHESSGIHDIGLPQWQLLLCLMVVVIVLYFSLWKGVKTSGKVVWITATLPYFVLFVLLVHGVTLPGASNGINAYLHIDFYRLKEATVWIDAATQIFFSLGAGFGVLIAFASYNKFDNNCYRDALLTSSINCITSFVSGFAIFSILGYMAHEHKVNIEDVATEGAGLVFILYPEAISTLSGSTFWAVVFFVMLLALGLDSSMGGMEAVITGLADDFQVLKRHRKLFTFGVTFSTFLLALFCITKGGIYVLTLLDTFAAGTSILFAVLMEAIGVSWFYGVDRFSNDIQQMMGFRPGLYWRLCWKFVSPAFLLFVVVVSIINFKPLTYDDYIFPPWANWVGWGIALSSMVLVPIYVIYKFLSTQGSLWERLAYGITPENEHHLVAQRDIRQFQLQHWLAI
Source text: as §1, §2, §3, §4

C57BL/6J mice = test: Conditioned place preference induced by the drug itself; format: in vivo
Source text: Conditioned place preference (CPP) is a widely used procedure for studying the potential addictive effect of drugs. CPP is based upon the tendency of rodents to approach a stimulus that has previously been paired with an incentive state induced by a drug. A drug that induces a CPP may be suspected to present reinforcing effects that could lead to addiction. Numerous addictive drugs, such as opiate agonists or stimulants induce a CPP and a behavioral sensitization.
The effect of mazindol on place preference was examined in C57BL/6J mice using a method similar to the one used by Schlussman et al. (9).
The second experiment consisted in determining the optimal dose of heroin which induces the most significant CPP. For this purpose, the CPP induced by heroin at 1.25, 2.5 and 5 mg/kg was examined.
(§5) Following the habituation session (on day 1), animals (N=72) were pseudo-randomly assigned to two groups, a Control group (N=12) and a Heroin group (N=60), in a way that there was no significant difference between the two groups for the total distance travelled in the apparatus and for the percentage of time spent and the percentage distance travelled in the grey compartment and in the striped compartment.
Animals received the following treatments immediately before drug sessions: • Control group: vehicle • Heroin group: heroin (1.25 mg/kg)
as §5, with “three” for “two”, “(N=12),” for “(N=12) and”, “(N=48) and a Mazindol group (N=12),” for “(N=60),”
Animals received the following treatments before drug sessions: • Control group: vehicle, i.p. immediately before session. • Heroin group: heroin (1.25 mg/kg), i.p. immediately before session. • MAZ 2 group: mazindol (2 mg/kg), i.p. 60 min before session.
Animals received the following treatments before preference session: • Control group: vehicle of mazindol, i.p. 60 min before testing. • Hero group: vehicle of mazindol, i.p. 60 min before testing. • Hero-Mz 1 group: mazindol (1 mg/kg), i.p. 60 min before testing. • Hero-Mz 2 group: mazindol (2 mg/kg), i.p. 60 min before testing. • Hero-A 1 group: D-amphetamine (1 mg/kg), i.p. 30 min before testing. • MAZ 2 group: vehicle of mazindol, i.p. 60 min before testing.

[2] = animal toxicology studies; cited from earlier work
[3] = cited from earlier work
[4] = Nakashima et al., 2004; cited from earlier work
[5] = Pharmacokinetics of mazindol after oral administration; conditions: immediate release formulation
[6] = MAZ 2: mazindol 2 mg/kg i.p. 60 min before drug sessions, vehicle before preference session, day 12, mean

T1 sequence (P34969 whole entry): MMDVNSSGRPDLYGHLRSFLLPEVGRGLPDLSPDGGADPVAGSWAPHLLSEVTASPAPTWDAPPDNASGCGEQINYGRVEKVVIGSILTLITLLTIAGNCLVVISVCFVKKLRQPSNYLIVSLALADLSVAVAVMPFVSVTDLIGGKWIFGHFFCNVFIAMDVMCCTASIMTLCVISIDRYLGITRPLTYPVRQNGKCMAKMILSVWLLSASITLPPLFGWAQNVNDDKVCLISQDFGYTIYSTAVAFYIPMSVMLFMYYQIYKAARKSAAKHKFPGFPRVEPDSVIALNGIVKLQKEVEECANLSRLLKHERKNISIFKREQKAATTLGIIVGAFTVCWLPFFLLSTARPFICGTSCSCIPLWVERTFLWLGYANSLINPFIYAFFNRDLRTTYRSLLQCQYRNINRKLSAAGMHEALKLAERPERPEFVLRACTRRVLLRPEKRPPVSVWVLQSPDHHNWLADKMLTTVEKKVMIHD

## OC1(c2ccc(Cl)cc2)c2ccccc2C2=NCCN21 (stereo not shown) [Mazindol, 5-(4-chlorophenyl)-2,5-dihydro-3 H-imadazo[2,1-a]isoindol-5-ol]
5-HT7(h)
  inhibition at 10 µM: 52.9%
M1(h)
  inhibition at 10 µM: 52.1%
μ (MOP) (h); 1.0 × 10^−05 M, agonist radioligand, read-out: percent inhibition of the binding of a radioactively labeled ligand
  inhibition at 10 µM: 89.9%
μ (MOP) (h); compared with amphetamines
  affinity for μ-opioid receptors: higher affinity
[1]
  inhibition at 10 µM: 100%
C57BL/6J mice; [6]
  Distance travelled in the drug-paired compartment: 9013.0 cm
  Distance travelled in the two compartments (Drug + Vehicle): 14858.2 cm
  Distance travelled in the vehicle-paired compartment: 5845.2 cm
  Distance travelled, drug-paired minus vehicle-paired compartment: 3167.8 cm
  Time spent in the drug-paired compartment: 1077.3 s
  Time spent in the vehicle-paired compartment: 722.7 s
  Time spent, drug-paired minus vehicle-paired compartment: 354.6 s
C57BL/6J mice; mazindol 2 mg/kg i.p. before drug sessions
  place preference induced by the drug: induced a place preference
[2]
  carcinogenic effect: no carcinogenic effect
  mutagenic effect: no mutagenic effect
  toxic potential: very low
  toxicology effect in reproduction: no toxicology effect in reproduction
[3]; between 1 mg/day and 4 mg/day, immediate release formulations
  linearity of pharmacokinetics: linear (independent of the dose)
[3]; immediate release formulation, healthy volunteers (Kim 2009)
  half-life time: 9.1 ± 1.7 h
[3]; single or repeated oral administration, U.S. Pat. No. 8,293,779
  time to maximum concentrations (Tmax): 2 to 4 h
[4]
  stability (hydrolysis to Met): hydrolysis of mazindol at moderate temperatures in neutral and alkaline aqueous solutions
[5]
  time to steady-state concentrations: 30 to 55 h
